Tested on: Plasmodium berghei
Test: Luciferase/luciferin-expressing antifolate-resistant parasites were used to infect a culture of HepG2 cells that were pre-incubated with compounds. Infected hepatocytes emit light due to the luciferase reaction. Assay results are presented as the percent inhibition of light emission compared to control. […]
Assay type: functional
Conditions: sporozoite; for IC90: read-out: LUCIFERASE INFECTION ASSAY - IC90
[1] = read-out: LUCIFERASE INFECTION ASSAY - IC50

Compound	IC90	IC50 [1]	also measured
CCOc1cc2ccccc2cc1C(=O)NOCc1ccccc1	> 10 µM		IC50 (PBLUC_HILL_SLOPE 2.14, PBLUC_R_SQUARED 0.146, read-out: LUCIFERASE INFECTION ASSAY - IC50): > 10 µM
Cc1cccc(C(C)C)c1NC(=O)C(C)Sc1nc2scc(-c3ccccc3Cl)c2c(=O)n1C (stereo not drawn)	1.19 µM		IC50 (HEPG2TOX_HILL_SLOPE 0.0632, HEPG2TOX_R_SQUARED 0.325, PBLUC_HILL_SLOPE 16, PBLUC_R_SQUARED 0.687, read-out: LUCIFERASE INFECTION ASSAY - IC50): 1.03 µM
COCOc1ccc(-c2cc(-c3ccc(C(N)=O)cc3)cnc2N)cc1	3.43 µM		IC50 (PBLUC_HILL_SLOPE 15.5, PBLUC_R_SQUARED 0.616, read-out: LUCIFERASE INFECTION ASSAY - IC50): 2.98 µM
O=C1C=CC(=O)N1c1ccc(Cl)cc1Cl	> 13.6 µM		IC50 (FFLUC_HILL_SLOPE 227, FFLUC_R_SQUARED 0.205, read-out: LUCIFERASE INFECTION ASSAY - IC50): > 13.6 µM
O=c1[nH]c2ccccc2c(=O)n1CC1(N2CCCCC2)CCCCC1	> 10 µM	> 10 µM	
O=C(Nc1ccc(Oc2cc(C(F)(F)F)cc(C(F)(F)F)c2)cc1)c1cccs1	0.356 µM		IC50 (PBLUC_HILL_SLOPE 1.36, PBLUC_R_SQUARED 0.733, read-out: LUCIFERASE INFECTION ASSAY - IC50): 0.0707 µM
CCc1nnc(NC(=O)c2csc(Cc3ccccc3)n2)s1	> 10 µM	8.84 µM	
COc1ccc(NC(=O)c2ccc(O)nc2)cc1S(=O)(=O)N1CCOCC1	> 10 µM	> 10 µM	
CNC(=O)c1ccc(CN(Cc2ccco2)C(=O)c2cc(-c3cccs3)nn2-c2ccccc2)cc1	4.68 µM		IC50 (PBLUC_HILL_SLOPE 10.4, PBLUC_R_SQUARED 0.208, read-out: LUCIFERASE INFECTION ASSAY - IC50): 3.79 µM
CNc1snc(C)c1C(=O)OCc1ccc([N+](=O)[O-])cc1	> 10 µM	> 10 µM	
OC(CNC1CCCc2ccccc21)COC(c1ccc(F)cc1)c1ccc(F)cc1 (stereo not drawn)	> 10 µM	> 10 µM	
CN(Cc1nccn1C(F)F)c1ncnc2sccc12	> 10 µM	> 10 µM	
CN(C)C(=O)CNC(=O)c1ccc(C(F)(F)F)cc1	> 10 µM	> 10 µM	
COc1ccc(-n2c(C)cc(C(=O)CSc3nc4c(n3-c3ccccc3)CCCC4)c2C)cc1	> 10 µM	> 10 µM	
Cc1cc(OCc2nc3ccc(Cl)cc3[nH]2)c(C(C)C)cc1Cl	> 10 µM	> 10 µM	
CC1(C(=O)NCc2ccco2)Cc2c(-c3ccccc3)ccnc2O1 (stereo not drawn)	3.99 µM		IC50 (HEPG2TOX_HILL_SLOPE 4.72, HEPG2TOX_R_SQUARED 0.753, PBLUC_HILL_SLOPE 10.4, PBLUC_R_SQUARED 0.157, read-out: LUCIFERASE INFECTION ASSAY - IC50): 3.23 µM
CC(C)(C)c1ccc(NC(=O)c2ccc[nH]c2=S)cc1	0.656 µM		IC50 (PBLUC_HILL_SLOPE 0.943, PBLUC_R_SQUARED 0.946, read-out: LUCIFERASE INFECTION ASSAY - IC50): 0.0638 µM
Cc1cc(C)cc(NC(=S)NCCCCN2CCN(c3cccc(Cl)c3)CC2)c1	> 7.66 µM		IC50 (PBLUC_HILL_SLOPE 3.55, PBLUC_R_SQUARED 0.0766, read-out: LUCIFERASE INFECTION ASSAY - IC50): 7.54 µM
Cc1cc2cc(Nc3ccc(S(=O)(=O)NC(C)(C)C)cc3[N+](=O)[O-])ccc2[nH]1	> 10 µM		IC50 (HEPG2TOX_HILL_SLOPE 6.66, HEPG2TOX_R_SQUARED 0.674, PBLUC_HILL_SLOPE 2.21, PBLUC_R_SQUARED 0.655, read-out: LUCIFERASE INFECTION ASSAY - IC50): 4.89 µM
CCn1c2ccccc2c2cc(NC(=O)C(C)OC(=O)C3C(C(=O)OC)=C(C)NC(C)=C3C(=O)OC)ccc21 (stereo not drawn)	> 10 µM		IC50 (FFLUC_HILL_SLOPE 9.58, FFLUC_R_SQUARED 0.157, read-out: LUCIFERASE INFECTION ASSAY - IC50): > 10 µM
N#CC(C#N)=NNc1ccc(OC(F)(F)F)cc1	> 13 µM		IC50 (HEPG2TOX_HILL_SLOPE 11.1, HEPG2TOX_R_SQUARED 0.969, PBLUC_HILL_SLOPE 0.201, PBLUC_R_SQUARED 0.0877, read-out: LUCIFERASE INFECTION ASSAY - IC50): 0.245 µM
CSc1ccc(-c2cn3c(-c4ccc(C(=O)NC5CC5)cc4)cnc3cn2)cc1	> 8.24 µM		IC50 (PBLUC_HILL_SLOPE 11.7, PBLUC_R_SQUARED 0.658, read-out: LUCIFERASE INFECTION ASSAY - IC50): 7.27 µM
COc1ccc(Sc2sc(C(C)=O)cc2[N+](=O)[O-])cc1	> 10.7 µM	> 10.7 µM	
NC(=S)COc1cc(Cl)cc(Cl)c1	> 14 µM		IC50 (HEPG2TOX_HILL_SLOPE 8.05, HEPG2TOX_R_SQUARED 0.893, PBLUC_HILL_SLOPE 16, PBLUC_R_SQUARED 0.105, read-out: LUCIFERASE INFECTION ASSAY - IC50): 13.4 µM
CCCn1c(NC(=O)C2CCCN(S(=O)(=O)c3cccs3)C2)nc2ccccc21 (stereo not drawn)	> 10 µM		IC50 (FFLUC_HILL_SLOPE 15.6, FFLUC_R_SQUARED 0.229, read-out: LUCIFERASE INFECTION ASSAY - IC50): > 10 µM

Compound	IC90	IC50 [1]	also measured
O=C(Nc1ccc(SC(F)(F)F)cc1)Nc1ccc(Sc2ccc(Cl)cc2)nc1	5.24 µM		IC50 (HEPG2TOX_HILL_SLOPE 3.12, HEPG2TOX_R_SQUARED 0.943, PBLUC_HILL_SLOPE 7.91, PBLUC_R_SQUARED 0.378, read-out: LUCIFERASE INFECTION ASSAY - IC50): 3.97 µM
Clc1ccc2c(c1)-c1nc(-c3ccncc3)ncc1CS2	5.94 µM		IC50 (HEPG2TOX_HILL_SLOPE 2.28, HEPG2TOX_R_SQUARED 0.969, PBLUC_HILL_SLOPE 3.97, PBLUC_R_SQUARED 0.207, read-out: LUCIFERASE INFECTION ASSAY - IC50): 3.41 µM
COc1cc(C(O)c2cc(C(F)(F)F)cc(C(F)(F)F)c2)cc(OC)c1OC (stereo not drawn)	> 8.04 µM	7.33 µM	
COc1cc(C(=O)NCC(c2ccco2)N2CCCCC2)ccc1Oc1ccc(Cl)cc1[N+](=O)[O-] (stereo not drawn)	> 10 µM	5.95 µM	
COc1cccc(/C=C/C(=O)Nc2nc3c(s2)CN(C(=O)OC(C)(C)C)CC3)c1	0.475 µM	0.387 µM	
FC(F)(F)c1cccc(NC(=S)Nc2cccnc2N2CCC(C(F)(F)F)CC2)c1	> 7.36 µM	> 7.36 µM	
Cc1cc(C(=O)C(C)OC(=O)c2ccc(NS(=O)(=O)c3ccc4c(c3)OCCO4)cc2)c(C)n1-c1ccc(Cl)cc1 (stereo not drawn)	> 10 µM		IC50 (FFLUC_HILL_SLOPE 2.2, FFLUC_R_SQUARED 0.531, HEPG2TOX_HILL_SLOPE 0.947, HEPG2TOX_R_SQUARED 0.641, PBLUC_HILL_SLOPE 4.36, PBLUC_R_SQUARED 0.544, read-out: LUCIFERASE INFECTION ASSAY - IC50): 6.62 µM
O=C(CNC(=O)c1ccc(Oc2ccccc2)cc1)Nc1nccs1	> 10 µM		IC50 (PBLUC_HILL_SLOPE 15.5, PBLUC_R_SQUARED 0.469, read-out: LUCIFERASE INFECTION ASSAY - IC50): 9.34 µM
COc1ccc(-c2cnc3sc(NCCc4ccc(S(N)(=O)=O)cc4)nn23)cc1OC	6.81 µM		IC50 (PBLUC_HILL_SLOPE 16.2, PBLUC_R_SQUARED 0.321, read-out: LUCIFERASE INFECTION ASSAY - IC50): 5.94 µM
O=C(Cc1cn2ccsc2n1)NNC(=O)c1cccnc1Nc1cccc(C(F)(F)F)c1	7.63 µM		IC50 (HEPG2TOX_HILL_SLOPE 6.77, HEPG2TOX_R_SQUARED 0.513, PBLUC_HILL_SLOPE 2.49, PBLUC_R_SQUARED 0.696, read-out: LUCIFERASE INFECTION ASSAY - IC50): 3.16 µM
Fc1ccc(NC(=S)NN=C2c3ccccc3-c3ccccc32)c(F)c1	> 10 µM	> 10 µM	
Cc1cc(C)cc(C(=O)N(CC2CCCO2)c2nc3ccccc3s2)c1 (stereo not drawn)	> 10 µM		IC50 (FFLUC_HILL_SLOPE 16.6, FFLUC_R_SQUARED 0.205, read-out: LUCIFERASE INFECTION ASSAY - IC50): > 10 µM
CC(C)(C)c1nnc2sc(SCC(=O)NC(c3ccccc3)c3ccccc3)nn2c1=O	> 10 µM		IC50 (FFLUC_HILL_SLOPE 10.4, FFLUC_R_SQUARED 0.278, PBLUC_HILL_SLOPE 1.88, PBLUC_R_SQUARED 0.683, read-out: LUCIFERASE INFECTION ASSAY - IC50): 4.26 µM
COc1ccc(-c2cnc3sc(NCCc4ccccn4)nn23)cn1	> 9.36 µM	> 9.36 µM	
O=C(Cn1nc(-c2ccco2)oc1=O)N(Cc1ccccc1)c1ccccc1	> 10 µM	> 10 µM	
Cc1noc(C)c1COc1ccccc1C(=O)N1CCN(S(=O)(=O)c2cccc(C(F)(F)F)c2)CC1	> 10 µM	> 10 µM	
C=CCSc1nnc(-c2ccco2)n1-c1ccc(OCc2ccccc2)cc1	> 8.47 µM	> 8.47 µM	
CCOC(=O)Nc1cccc(N)c1C	> 10 µM	> 10 µM	
CC(C)n1ncc2cc(C(=O)Nc3nc4ccccc4s3)cnc21	1.97 µM	0.00908 µM	
CNc1ccc(CSc2ccc(C(F)(F)F)cn2)cc1C(F)(F)F	> 9.01 µM	> 9.01 µM	
O=C(N/N=C/c1sc(Nc2ccccc2)nc1Cl)c1cc(-c2ccncc2)nc2ccccc12	> 10 µM	> 10 µM	
COc1ccc(NC(=O)c2nnc(CSc3nc(C)cc(-c4ccccc4)n3)s2)cc1	0.616 µM		IC50 (HEPG2TOX_HILL_SLOPE 2.12, HEPG2TOX_R_SQUARED 0.961, PBLUC_HILL_SLOPE 18.1, PBLUC_R_SQUARED 0.668, read-out: LUCIFERASE INFECTION ASSAY - IC50): 0.546 µM
CCOc1ccc(S(=O)(=O)N(Cc2nnc(-c3cccs3)o2)c2ccccc2OC)cc1	> 10 µM		IC50 (HEPG2TOX_HILL_SLOPE 1.67, HEPG2TOX_R_SQUARED 0.357, PBLUC_HILL_SLOPE 2.18, PBLUC_R_SQUARED 0.1, read-out: LUCIFERASE INFECTION ASSAY - IC50): 6.59 µM
CSc1sc(-c2ccon2)c(-c2ccccc2)c1C#N	> 11.1 µM	> 11.1 µM	

From ChEMBL document CHEMBL4483862, “Open-source discovery of chemical leads for next-generation chemoprotective antimalarials” (2018)
